# Where two headings read alike, the source gives them in different places.
# Columns and labels:
# 39 kinases (Table 4) = conditions: known general specificities of the inhibitors; cited from earlier work
# kinases of Table 5 [1] = biological target: T1, kinases of Table 5 (Homo sapiens, UniProt Q8IV63); test: Further analysis of a plurality of inhibitors and a plurality of kinases (Table 5 inhibition results); type: biochemical; parameters: scale not given here; conditions: kinase LOC51231 (Part I, plate C12, Domain 1)
# T1 sequence (Q8IV63 1-474): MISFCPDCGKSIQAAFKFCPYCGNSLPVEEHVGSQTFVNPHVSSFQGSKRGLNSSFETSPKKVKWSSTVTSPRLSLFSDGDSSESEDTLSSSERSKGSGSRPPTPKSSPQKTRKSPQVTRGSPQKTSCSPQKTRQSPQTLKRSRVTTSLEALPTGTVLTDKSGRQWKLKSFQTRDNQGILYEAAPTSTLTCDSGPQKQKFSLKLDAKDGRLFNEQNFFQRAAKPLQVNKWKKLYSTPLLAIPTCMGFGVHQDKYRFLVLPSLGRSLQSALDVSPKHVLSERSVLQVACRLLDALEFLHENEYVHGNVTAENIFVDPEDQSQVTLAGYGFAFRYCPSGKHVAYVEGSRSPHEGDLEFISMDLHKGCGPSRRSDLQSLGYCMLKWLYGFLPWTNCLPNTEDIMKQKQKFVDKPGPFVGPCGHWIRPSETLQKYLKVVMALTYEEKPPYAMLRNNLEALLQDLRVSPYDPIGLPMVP
# Source text: (§1) The wash solution is then discarded.
# kinases of Table 5 [2] = biological target: T2, kinases of Table 5 (Homo sapiens, UniProt Q96KB5); test: as above; type: biochemical; parameters: scale not given here; conditions: kinase TOPK (Part I, plate G7, Domain 1)
# T2 sequence (Q96KB5 1-322): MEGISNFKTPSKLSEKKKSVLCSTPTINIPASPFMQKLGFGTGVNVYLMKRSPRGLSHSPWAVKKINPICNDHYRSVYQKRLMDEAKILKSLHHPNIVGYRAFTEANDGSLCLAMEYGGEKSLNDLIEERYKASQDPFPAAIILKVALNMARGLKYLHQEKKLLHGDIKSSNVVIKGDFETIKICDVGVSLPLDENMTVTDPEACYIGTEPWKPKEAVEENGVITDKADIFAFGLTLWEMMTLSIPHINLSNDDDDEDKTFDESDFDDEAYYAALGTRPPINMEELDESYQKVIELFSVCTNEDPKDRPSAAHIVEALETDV
# Source text: as §1
# kinases of Table 5 [3] = biological target: kinases of Table 5 (Homo sapiens, UniProt Q00536); test: as above; type: biochemical; parameters: scale not given here; conditions: kinase PCTK1 (Part I, plate A3, Domain 0); inhibitor 100 uM
# Chain of kinases of Table 5 (Homo sapiens, UniProt Q00536) (Q00536 whole entry): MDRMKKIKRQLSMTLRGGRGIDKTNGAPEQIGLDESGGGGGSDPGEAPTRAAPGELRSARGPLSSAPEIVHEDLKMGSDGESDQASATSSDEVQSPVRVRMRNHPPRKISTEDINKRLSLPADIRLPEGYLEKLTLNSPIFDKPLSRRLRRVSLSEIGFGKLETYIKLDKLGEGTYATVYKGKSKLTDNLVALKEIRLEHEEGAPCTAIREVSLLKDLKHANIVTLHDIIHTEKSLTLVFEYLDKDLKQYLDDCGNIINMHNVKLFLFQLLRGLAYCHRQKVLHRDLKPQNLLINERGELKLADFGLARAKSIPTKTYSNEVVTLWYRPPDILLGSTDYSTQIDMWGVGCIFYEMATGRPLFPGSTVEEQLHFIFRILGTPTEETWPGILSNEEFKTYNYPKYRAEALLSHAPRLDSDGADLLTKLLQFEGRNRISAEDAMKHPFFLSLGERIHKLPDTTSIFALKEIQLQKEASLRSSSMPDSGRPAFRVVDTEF
# Source text: as §1
# kinases of Table 5 [4] = biological target: T3, kinases of Table 5 (Homo sapiens, UniProt P45985); test: as above; type: biochemical; parameters: scale not given here
# T3 sequence (P45985 1-399): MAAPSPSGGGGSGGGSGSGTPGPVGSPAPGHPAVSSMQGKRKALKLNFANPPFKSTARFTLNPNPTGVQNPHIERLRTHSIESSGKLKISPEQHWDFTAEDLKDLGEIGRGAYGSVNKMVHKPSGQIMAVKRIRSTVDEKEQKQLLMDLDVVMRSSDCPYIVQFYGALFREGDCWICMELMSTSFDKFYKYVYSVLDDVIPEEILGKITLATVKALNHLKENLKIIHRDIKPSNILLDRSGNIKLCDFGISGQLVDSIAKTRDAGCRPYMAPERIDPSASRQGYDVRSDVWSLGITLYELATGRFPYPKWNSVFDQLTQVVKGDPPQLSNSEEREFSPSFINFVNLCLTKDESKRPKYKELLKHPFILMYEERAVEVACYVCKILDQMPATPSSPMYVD
# Source text: as §1
# kinases of Table 5 [5] = biological target: kinases of Table 5 (Homo sapiens, UniProt P07948); test: as above; type: biochemical; parameters: scale not given here
# Chain of kinases of Table 5 (Homo sapiens, UniProt P07948) (P07948 whole entry): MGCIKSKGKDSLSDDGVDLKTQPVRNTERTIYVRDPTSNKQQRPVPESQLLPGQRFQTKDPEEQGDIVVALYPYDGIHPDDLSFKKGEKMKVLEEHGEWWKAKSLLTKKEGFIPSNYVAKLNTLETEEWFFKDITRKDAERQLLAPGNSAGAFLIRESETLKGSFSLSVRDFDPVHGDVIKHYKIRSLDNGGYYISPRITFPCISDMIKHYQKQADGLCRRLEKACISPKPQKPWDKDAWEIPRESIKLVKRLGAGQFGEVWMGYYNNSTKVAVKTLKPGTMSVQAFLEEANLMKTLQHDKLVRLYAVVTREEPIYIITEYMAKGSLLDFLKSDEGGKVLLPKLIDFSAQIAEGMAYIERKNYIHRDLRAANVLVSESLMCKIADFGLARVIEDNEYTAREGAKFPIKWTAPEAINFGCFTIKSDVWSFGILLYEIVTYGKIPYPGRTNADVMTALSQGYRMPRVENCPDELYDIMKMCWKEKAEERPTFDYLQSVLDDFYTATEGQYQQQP
# Source text: as §1
# kinases of Table 5 [6] = biological target: T4, kinases of Table 5 (Homo sapiens, UniProt Q8IVH8); test: as above; type: biochemical; parameters: scale not given here; conditions: kinase MAP4K3 (Part I, plate C5, Domain 1); inhibitor 100 uM
# T4 sequence (Q8IVH8 1-894): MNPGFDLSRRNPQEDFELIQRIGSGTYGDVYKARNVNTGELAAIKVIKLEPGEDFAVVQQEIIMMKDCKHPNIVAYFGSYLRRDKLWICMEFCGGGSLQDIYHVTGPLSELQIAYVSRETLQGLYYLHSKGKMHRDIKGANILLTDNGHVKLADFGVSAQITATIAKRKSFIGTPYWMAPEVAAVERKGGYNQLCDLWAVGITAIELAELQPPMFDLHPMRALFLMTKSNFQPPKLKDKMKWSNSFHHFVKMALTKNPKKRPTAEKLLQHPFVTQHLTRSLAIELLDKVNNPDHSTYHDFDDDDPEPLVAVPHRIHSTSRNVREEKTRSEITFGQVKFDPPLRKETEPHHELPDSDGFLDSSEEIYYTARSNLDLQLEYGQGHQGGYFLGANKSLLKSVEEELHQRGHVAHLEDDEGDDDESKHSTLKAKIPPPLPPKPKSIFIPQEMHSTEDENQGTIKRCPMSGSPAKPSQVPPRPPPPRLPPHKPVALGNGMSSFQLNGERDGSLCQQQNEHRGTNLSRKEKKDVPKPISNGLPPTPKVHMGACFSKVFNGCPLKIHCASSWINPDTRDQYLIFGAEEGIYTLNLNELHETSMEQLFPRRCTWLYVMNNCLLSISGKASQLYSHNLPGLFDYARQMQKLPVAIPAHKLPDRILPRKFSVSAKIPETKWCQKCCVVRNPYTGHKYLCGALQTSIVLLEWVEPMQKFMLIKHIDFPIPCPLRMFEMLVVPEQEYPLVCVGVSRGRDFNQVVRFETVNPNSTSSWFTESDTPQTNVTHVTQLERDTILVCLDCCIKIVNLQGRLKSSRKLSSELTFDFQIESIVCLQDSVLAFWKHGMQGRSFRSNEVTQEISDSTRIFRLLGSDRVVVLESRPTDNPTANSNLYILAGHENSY
# Source text: as §1
# kinases of Table 5 [7] = biological target: kinases of Table 5 (Homo sapiens, UniProt O75716); test: as above; type: biochemical; parameters: scale not given here; conditions: kinase STK16 (Part I, plate C3, Domain 1)
# Chain of kinases of Table 5 (Homo sapiens, UniProt O75716) (O75716 whole entry): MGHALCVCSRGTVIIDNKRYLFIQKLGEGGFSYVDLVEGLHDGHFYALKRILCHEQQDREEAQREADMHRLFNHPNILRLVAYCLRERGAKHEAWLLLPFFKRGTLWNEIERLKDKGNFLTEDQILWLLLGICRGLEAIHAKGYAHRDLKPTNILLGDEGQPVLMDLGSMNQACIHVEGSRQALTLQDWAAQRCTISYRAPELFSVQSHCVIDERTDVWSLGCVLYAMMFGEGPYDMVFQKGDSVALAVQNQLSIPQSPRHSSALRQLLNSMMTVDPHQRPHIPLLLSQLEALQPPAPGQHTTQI
# Source text: as §1
# [8] = kinase MAP2K4 (Part I, plate E6, Domain 1), inhibitor 100 uM
# [9] = kinase LYN (Part I, plate A5, Domain 0), inhibitor 100 uM
Inhibition Results (Level) (kinases of Table 5 [1]; inhibitor 100 uM),Inhibition Results (Level) (kinases of Table 5 [2]; inhibitor 100 uM),Inhibition Results (Level) (kinases of Table 5 [3]),Inhibition Results (Level) (kinases of Table 5 [4]; [8]),Inhibition Results (Level) (kinases of Table 5 [5]; [9]),Inhibition Results (Level) (kinases of Table 5 [6]),Inhibition Results (Level) (kinases of Table 5 [7]; inhibitor 100 uM),Structure (SMILES),General Specificity (39 kinases (Table 4)),other results
0,1,0,0,2,2,0,COc1cc2ncnc(Nc3cccc(Cl)c3)c2cc1OC [AG 1478],–,–
2,2,2,1,2,1,2,O=S(=O)(NCCNC/C=C/c1ccc(Br)cc1)c1cccc2cnccc12 [H-89],Serine/threonine,–
0,2,1,2,2,2,2,CC(C)(C)n1nc(-c2ccc(Cl)cc2)c2c(N)ncnc21 [PP2],Tyrosine,–
2,0,0,1,2,2,1,Cn1cc(C2=C(c3cn(CCCSC(=N)N)c4ccccc34)C(=O)NC2=O)c2ccccc21 [Ro-31-8220],Serine/threonine,"Inhibition Results (Level) (kinases of Table 5 [1]; inhibitor 90 uM): 0; Inhibition Results (Level) (kinases of Table 5 [2]; inhibitor 90 uM): 2; Inhibition Results (Level) (kinases of Table 5 [4]; kinase MAP2K4 (Part I, plate E6, Domain 1), inhibitor 90 uM): 0; Inhibition Results (Level) (kinases of Table 5 [5]; kinase LYN (Part I, plate A5, Domain 0), inhibitor 90 uM): 0; Inhibition Results (Level) (kinases of Table 5 [7]; inhibitor 90 uM): 2"

# Continued, molecule first:
Structure (SMILES),Inhibition Results (Level) (kinases of Table 5 [1]; inhibitor 100 uM),Inhibition Results (Level) (kinases of Table 5 [2]; inhibitor 100 uM),Inhibition Results (Level) (kinases of Table 5 [3]),Inhibition Results (Level) (kinases of Table 5 [4]; [8]),Inhibition Results (Level) (kinases of Table 5 [5]; [9]),Inhibition Results (Level) (kinases of Table 5 [6]),Inhibition Results (Level) (kinases of Table 5 [7]; inhibitor 100 uM),General Specificity (39 kinases (Table 4)),other results
N#C/C(=C/c1ccc(O)c(O)c1)C(=O)NCc1ccccc1 [AG 490],0,2,0,0,2,1,0,Tyrosine,–
O=c1c(-c2ccc(O)cc2)coc2cc(O)cc(O)c12 [Genistein],2,2,1,2,2,2,0,Tyrosine,"Inhibition Results (Level) (kinases of Table 5 [1]; inhibitor <3.7 mM): 0; Inhibition Results (Level) (kinases of Table 5 [2]; inhibitor <3.7 mM): 0; Inhibition Results (Level) (kinases of Table 5 [4]; kinase MAP2K4 (Part I, plate E6, Domain 1), inhibitor <3.7 mM): 0; Inhibition Results (Level) (kinases of Table 5 [5]; kinase LYN (Part I, plate A5, Domain 0), inhibitor <3.7 mM): 2; Inhibition Results (Level) (kinases of Table 5 [7]; inhibitor <3.7 mM): 0"
O=c1c(O)c(-c2ccc(O)c(O)c2)oc2cc(O)cc(O)c12 [Quercetin],0,0,0,0,2,1,0,–,–
CC(=O)c1c(O)c(C)c(O)c(Cc2c(O)c3c(c(C(=O)/C=C/c4ccccc4)c2O)OC(C)(C)C=C3)c1O [Rottlerin (Mallotoxin)],0,2,0,1,2,1,0,–,–
CN[C@@H]1C[C@H]2O[C@@](C)([C@@H]1OC)n1c3ccccc3c3c4c(c5c6ccccc6n2c5c31)C(=O)NC4 [Staurosporine],–,–,–,–,–,–,–,Broad,Inhibition Results (Level) (kinases of Table 5 [1]; inhibitor 21.5 uM): 0; Inhibition Results (Level) (kinases of Table 5 [2]; inhibitor 21.5 uM): 2; Inhibition Results (Level) (kinases of Table 5 [4]): 0; Inhibition Results (Level) (kinases of Table 5 [5]): 0; Inhibition Results (Level) (kinases of Table 5 [7]; inhibitor 21.5 uM): 2

# From patent US20090099029A1, “Methods and substrates for conducting assays” (Invitrogen Corporation, priority 2005, published 2009)
